This note sets out measurements from patent publication US7994140B2, “Classes of compounds that interact with GPCRs” (Alchemia Limited, priority 2002, dated 2011).

This experiment concerns the target T1, MC4 (Homo sapiens, UniProt P32245).
T1 construct: purchased Perkin Elmer BioSignal; host or cells: HEK 293
Put plainly: GPCR radioligand binding (RLB) assay, melanocortin MC4, [125I]NDP-αMSH. As to conditions: 4.0 Micromolar. A digest of the protocol:
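Membranes from HEK 293 cells expressing the recombinant human receptor were equilibrated with [125I]SST-14 (SST5) or [125I]NDP-αMSH (MC4), then compound added for an optimized incubation. Bound ligand separated by filtration on PEI-coated glass fiber and counted by liquid scintillation.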

T1 sequence (P32245 whole entry): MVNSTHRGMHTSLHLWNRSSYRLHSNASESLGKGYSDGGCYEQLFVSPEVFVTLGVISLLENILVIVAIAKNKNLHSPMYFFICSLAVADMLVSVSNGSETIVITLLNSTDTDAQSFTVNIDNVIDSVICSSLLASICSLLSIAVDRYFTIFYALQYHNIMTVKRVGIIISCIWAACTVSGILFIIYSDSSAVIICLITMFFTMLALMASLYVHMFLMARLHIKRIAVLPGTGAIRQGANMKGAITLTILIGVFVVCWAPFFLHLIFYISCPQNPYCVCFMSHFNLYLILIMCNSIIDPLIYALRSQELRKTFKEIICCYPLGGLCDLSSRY

As for `N=C(N)NCC(=O)N[C@H]1C(OCc2ccccc2)O[C@H](COCc2ccccc2)[C@@H](O)[C@@H]1OCc1ccc(Cl)cc1` (stereo partly shown) [Compound 433], the “MC4 Inhibition at 4.0 Micromolar” value (Example Library 12) is “+ (Indicates inhibition greater than . . . 50%)”.

Regarding `N=C(N)NCC(=O)N[C@H]1C(OCc2ccccc2)O[C@H](COCc2ccccc2)[C@@H](O)[C@@H]1OCc1ccc(Cl)cc1` (stereo partly shown) [Compound 434], the “MC4 Inhibition at 4.0 Micromolar” value (Example Library 12) was “+ (Indicates inhibition greater than . . . 50%)”.

On to `N=C(N)NCC(=O)N[C@H]1C(OCc2ccccc2)O[C@H](COCc2ccc(Cl)cc2)[C@@H](O)[C@@H]1OCc1ccc(Cl)cc1` (stereo partly shown) [Compound 435], for which the “MC4 Inhibition at 4.0 Micromolar” value (Example Library 12) is on record as “+ (Indicates inhibition greater than . . . 50%)”.

Regarding `N=C(N)NCC(=O)N[C@H]1C(OCc2ccccc2)O[C@H](COCc2ccc3ccccc3c2)[C@@H](O)[C@@H]1OCc1ccc2ccccc2c1` (stereo partly shown) [Compound 436], where the note is “Example Library 12”, the “MC4 Inhibition at 4.0 Micromolar” value was “+ (Indicates inhibition greater than . . . 50%)”.

Turning to `N=C(N)NCC(=O)N[C@H]1C(OCc2ccccc2)O[C@H](COCc2ccc3ccccc3c2)[C@@H](O)[C@@H]1OCc1ccc2ccccc2c1` (stereo partly shown) [Compound 437], the “MC4 Inhibition at 4.0 Micromolar” value (Example Library 12) is listed as “+ (Indicates inhibition greater than . . . 50%)”.

In the case of `N=C(N)NCC(=O)N[C@H]1C(OCc2ccccc2)O[C@H](COCc2ccccc2)[C@@H](O)[C@@H]1OCc1ccc2ccccc2c1` (stereo partly shown) [Compound 438], the “MC4 Inhibition at 4.0 Micromolar” value (Example Library 12) was “+ (Indicates inhibition greater than . . . 50%)”.

In the case of `N=C(N)NCC(=O)N[C@H]1C(OCc2ccccc2)O[C@H](COCc2ccc(Cl)cc2)[C@@H](O)[C@@H]1OCc1ccc2ccccc2c1` (stereo partly shown) [Compound 439], the “MC4 Inhibition at 4.0 Micromolar” value (Example Library 12) was “+ (Indicates inhibition greater than . . . 50%)”.

As to `N=C(N)NCC(=O)N[C@H]1C(OCc2ccccc2)O[C@H](COCc2ccc(Cl)cc2)[C@@H](O)[C@@H]1OCc1ccc2ccccc2c1` (stereo partly shown) [Compound 440], the “MC4 Inhibition at 4.0 Micromolar” value (Example Library 12) is on record as “+ (Indicates inhibition greater than . . . 50%)”.

In the case of `N=C(N)NCC(=O)N[C@H]1C(OCc2ccccc2)O[C@H](COCc2ccc3ccccc3c2)[C@@H](O)[C@@H]1OCc1ccc(-c2ccccc2)cc1` (stereo partly shown) [Compound 441], for the setting “Example Library 12”, the “MC4 Inhibition at 4.0 Micromolar” value is “+ (Indicates inhibition greater than . . . 50%)”.

As for `N=C(N)NCC(=O)N[C@H]1C(OCc2ccccc2)O[C@H](COCc2ccccc2)[C@@H](O)[C@@H]1OCc1ccc(-c2ccccc2)cc1` (stereo partly shown) [Compound 442], the “MC4 Inhibition at 4.0 Micromolar” value (Example Library 12) was “+ (Indicates inhibition greater than . . . 50%)”.

As to `N=C(N)NCC(=O)N[C@H]1C(OCc2ccccc2)O[C@H](COCc2ccccc2)[C@@H](O)[C@@H]1OCc1ccc(-c2ccccc2)cc1` (stereo partly shown) [Compound 443], the “MC4 Inhibition at 4.0 Micromolar” value (Example Library 12) was “+ (Indicates inhibition greater than . . . 50%)”.

Turning to `N=C(N)NCC(=O)N[C@H]1C(OCc2ccccc2)O[C@H](COCc2ccc(Cl)cc2)[C@@H](O)[C@@H]1OCc1ccc(-c2ccccc2)cc1` (stereo partly shown) [Compound 444], the “MC4 Inhibition at 4.0 Micromolar” value (Example Library 12) is on record as “+ (Indicates inhibition greater than . . . 50%)”.

On to `N=C(N)NCC(=O)N[C@H]1C(OCc2ccccc2)O[C@H](COCc2ccc(Cl)cc2)[C@@H](O)[C@@H]1OCc1ccc(-c2ccccc2)cc1` (stereo partly shown) [Compound 445], for which the “MC4 Inhibition at 4.0 Micromolar” value (Example Library 12) is on record as “+ (Indicates inhibition greater than . . . 50%)”.

In the case of `N=C(N)NCCC(=O)N[C@H]1C(OCc2ccccc2)O[C@H](COCc2ccc3ccccc3c2)[C@@H](O)[C@@H]1OCc1ccc(Cl)cc1` (stereo partly shown) [Compound 446], the “MC4 Inhibition at 4.0 Micromolar” value (Example Library 12) is on record as “+ (Indicates inhibition greater than . . . 50%)”.

For the compound `N=C(N)NCCC(=O)N[C@H]1C(OCc2ccccc2)O[C@H](COCc2ccc3ccccc3c2)[C@@H](O)[C@@H]1OCc1ccc(Cl)cc1` (stereo partly shown) [Compound 447], the “MC4 Inhibition at 4.0 Micromolar” value (Example Library 12) is listed as “+ (Indicates inhibition greater than . . . 50%)”.

With `N=C(N)NCCC(=O)N[C@H]1C(OCc2ccccc2)O[C@H](COCc2ccccc2)[C@@H](O)[C@@H]1OCc1ccc(Cl)cc1` (stereo partly shown) [Compound 448], under “Example Library 12”, the “MC4 Inhibition at 4.0 Micromolar” value was “+ (Indicates inhibition greater than . . . 50%)”.

Regarding `N=C(N)NCCC(=O)N[C@H]1C(OCc2ccccc2)O[C@H](COCc2ccccc2)[C@@H](O)[C@@H]1OCc1ccc(Cl)cc1` (stereo partly shown) [Compound 449], the “MC4 Inhibition at 4.0 Micromolar” value (Example Library 12) is recorded as “+ (Indicates inhibition greater than . . . 50%)”.

On to `N=C(N)NCCC(=O)N[C@H]1C(OCc2ccccc2)O[C@H](COCc2ccc(Cl)cc2)[C@@H](O)[C@@H]1OCc1ccc(Cl)cc1` (stereo partly shown) [Compound 450], for which the “MC4 Inhibition at 4.0 Micromolar” value (Example Library 12) is on record as “+ (Indicates inhibition greater than . . . 50%)”.

With `N=C(N)NCCC(=O)N[C@H]1C(OCc2ccccc2)O[C@H](COCc2ccc(Cl)cc2)[C@@H](O)[C@@H]1OCc1ccc(Cl)cc1` (stereo partly shown) [Compound 451], the “MC4 Inhibition at 4.0 Micromolar” value (Example Library 12) is “+ (Indicates inhibition greater than . . . 50%)”.

Take `N=C(N)NCCC(=O)N[C@H]1C(OCc2ccccc2)O[C@H](COCc2ccc3ccccc3c2)[C@@H](O)[C@@H]1OCc1ccc2ccccc2c1` (stereo partly shown) [Compound 452]: the “MC4 Inhibition at 4.0 Micromolar” value (Example Library 12) is on record as “+ (Indicates inhibition greater than . . . 50%)”.

As to `N=C(N)NCCC(=O)N[C@H]1C(OCc2ccccc2)O[C@H](COCc2ccccc2)[C@@H](O)[C@@H]1OCc1ccc2ccccc2c1` (stereo partly shown) [Compound 453], the “MC4 Inhibition at 4.0 Micromolar” value (Example Library 12) was “+ (Indicates inhibition greater than . . . 50%)”.

For the compound `N=C(N)NCCC(=O)N[C@H]1C(OCc2ccccc2)O[C@H](COCc2ccccc2)[C@@H](O)[C@@H]1OCc1ccc2ccccc2c1` (stereo partly shown) [Compound 454], the “MC4 Inhibition at 4.0 Micromolar” value (Example Library 12) was “+ (Indicates inhibition greater than . . . 50%)”.

`N=C(N)NCCC(=O)N[C@H]1C(OCc2ccccc2)O[C@H](COCc2ccc(Cl)cc2)[C@@H](O)[C@@H]1OCc1ccc2ccccc2c1` (stereo partly shown) [Compound 455]: under “Example Library 12”, the “MC4 Inhibition at 4.0 Micromolar” value was “+ (Indicates inhibition greater than . . . 50%)”.

As to `N=C(N)NCCC(=O)N[C@H]1C(OCc2ccccc2)O[C@H](COCc2ccc(Cl)cc2)[C@@H](O)[C@@H]1OCc1ccc2ccccc2c1` (stereo partly shown) [Compound 456], the “MC4 Inhibition at 4.0 Micromolar” value (Example Library 12) is recorded as “+ (Indicates inhibition greater than . . . 50%)”.

On to `N=C(N)NCCC(=O)N[C@H]1C(OCc2ccccc2)O[C@H](COCc2ccc3ccccc3c2)[C@@H](O)[C@@H]1OCc1ccc(-c2ccccc2)cc1` (stereo partly shown) [Compound 457], for which the “MC4 Inhibition at 4.0 Micromolar” value (Example Library 12) is reported as “+ (Indicates inhibition greater than . . . 50%)”.

For the compound `N=C(N)NCCC(=O)N[C@H]1C(OCc2ccccc2)O[C@H](COCc2ccc3ccccc3c2)[C@@H](O)[C@@H]1OCc1ccc(-c2ccccc2)cc1` (stereo partly shown) [Compound 458], the “MC4 Inhibition at 4.0 Micromolar” value (Example Library 12) is given as “+ (Indicates inhibition greater than . . . 50%)”.

As for `N=C(N)NCCC(=O)N[C@H]1C(OCc2ccccc2)O[C@H](COCc2ccccc2)[C@@H](O)[C@@H]1OCc1ccc(-c2ccccc2)cc1` (stereo partly shown) [Compound 459], the “MC4 Inhibition at 4.0 Micromolar” value (Example Library 12) is listed as “+ (Indicates inhibition greater than . . . 50%)”.

`N=C(N)NCCC(=O)N[C@H]1C(OCc2ccccc2)O[C@H](COCc2ccc(Cl)cc2)[C@@H](O)[C@@H]1OCc1ccc(-c2ccccc2)cc1` (stereo partly shown) [Compound 460]: the “MC4 Inhibition at 4.0 Micromolar” value (Example Library 12) is “+ (Indicates inhibition greater than . . . 50%)”.

Consider `N=C(N)NCCC(=O)N[C@H]1C(OCc2ccccc2)O[C@H](COCc2ccc(Cl)cc2)[C@@H](O)[C@@H]1OCc1ccc(-c2ccccc2)cc1` (stereo partly shown) [Compound 461], for which the “MC4 Inhibition at 4.0 Micromolar” value (Example Library 12) was “+ (Indicates inhibition greater than . . . 50%)”.

Take `N=C(N)NCCC(=O)N[C@H]1C(OCc2ccccc2)O[C@H](COCCc2ccccc2)[C@@H](O)[C@@H]1OCc1ccc(-c2ccccc2)cc1` (stereo partly shown) [Compound 462]: the “MC4 Inhibition at 4.0 Micromolar” value (Example Library 12) is “+ (Indicates inhibition greater than . . . 50%)”.

For `N=C(N)NCC(=O)N[C@H]1C(OCc2ccc(-c3ccccc3)cc2)O[C@H](COCc2ccc3ccccc3c2)[C@@H](O)[C@H]1OCc1ccc(Cl)cc1` (stereo partly shown) [Compound 463], the “MC4 Inhibition at 4.0 Micromolar” value (Example Library 13) is listed as “+ (Indicates inhibition greater than . . . 50%)”.

On to `N=C(N)NCC(=O)N[C@H]1C(OCc2ccc(-c3ccccc3)cc2)O[C@H](COCc2ccccc2)[C@@H](O)[C@H]1OCc1ccc(Cl)cc1` (stereo partly shown) [Compound 464], for which the “MC4 Inhibition at 4.0 Micromolar” value (Example Library 13) is on record as “+ (Indicates inhibition greater than . . . 50%)”.

As to `N=C(N)NCC(=O)N[C@H]1C(OCc2ccc(-c3ccccc3)cc2)O[C@H](COCc2ccc(Cl)cc2)[C@@H](O)[C@H]1OCc1ccc(Cl)cc1` (stereo partly shown) [Compound 465], under “Example Library 13”, the “MC4 Inhibition at 4.0 Micromolar” value was “+ (Indicates inhibition greater than . . . 50%)”.

Take `N=C(N)NCC(=O)N[C@H]1C(OCc2ccc(-c3ccccc3)cc2)O[C@H](COCc2ccccc2)[C@@H](O)[C@H]1OCc1ccc2ccccc2c1` (stereo partly shown) [Compound 466]: the “MC4 Inhibition at 4.0 Micromolar” value (Example Library 13) was “+ (Indicates inhibition greater than . . . 50%)”.

`N=C(N)NCC(=O)N[C@H]1C(OCc2ccc(-c3ccccc3)cc2)O[C@H](COCc2ccc(Cl)cc2)[C@@H](O)[C@H]1OCc1ccc2ccccc2c1` (stereo partly shown) [Compound 467]: the “MC4 Inhibition at 4.0 Micromolar” value (Example Library 13) is listed as “+ (Indicates inhibition greater than . . . 50%)”.

With `N=C(N)NCC(=O)N[C@H]1C(OCc2ccc(-c3ccccc3)cc2)O[C@H](COCc2ccccc2)[C@@H](O)[C@H]1OCc1ccc(-c2ccccc2)cc1` (stereo partly shown) [Compound 468], the “MC4 Inhibition at 4.0 Micromolar” value (Example Library 13) was “+ (Indicates inhibition greater than . . . 50%)”.

For `N=C(N)NCC(=O)N[C@H]1C(OCc2ccc(-c3ccccc3)cc2)O[C@H](COCc2ccc(Cl)cc2)[C@@H](O)[C@H]1OCc1ccc(-c2ccccc2)cc1` (stereo partly shown) [Compound 469], the “MC4 Inhibition at 4.0 Micromolar” value (Example Library 13) is “+ (Indicates inhibition greater than . . . 50%)”.

As to `N=C(N)NCCC(=O)N[C@H]1C(OCc2ccc(-c3ccccc3)cc2)O[C@H](COCc2ccc3ccccc3c2)[C@@H](O)[C@H]1OCc1ccc(Cl)cc1` (stereo partly shown) [Compound 470], the “MC4 Inhibition at 4.0 Micromolar” value (Example Library 13) is “+ (Indicates inhibition greater than . . . 50%)”.

Turning to `N=C(N)NCCC(=O)N[C@H]1C(OCc2ccc(-c3ccccc3)cc2)O[C@H](COCc2ccccc2)[C@@H](O)[C@H]1OCc1ccc(Cl)cc1` (stereo partly shown) [Compound 471], the “MC4 Inhibition at 4.0 Micromolar” value (Example Library 13) was “+ (Indicates inhibition greater than . . . 50%)”.

For `N=C(N)NCCC(=O)N[C@H]1C(OCc2ccc(-c3ccccc3)cc2)O[C@H](COCc2ccc(Cl)cc2)[C@@H](O)[C@H]1OCc1ccc(Cl)cc1` (stereo partly shown) [Compound 472], the “MC4 Inhibition at 4.0 Micromolar” value (Example Library 13) was “+ (Indicates inhibition greater than . . . 50%)”.
